Biological target: T1, Solute carrier organic anion transporter family member 1A4 (Rattus norvegicus, UniProt O35913)
T1 sequence (O35913 whole entry): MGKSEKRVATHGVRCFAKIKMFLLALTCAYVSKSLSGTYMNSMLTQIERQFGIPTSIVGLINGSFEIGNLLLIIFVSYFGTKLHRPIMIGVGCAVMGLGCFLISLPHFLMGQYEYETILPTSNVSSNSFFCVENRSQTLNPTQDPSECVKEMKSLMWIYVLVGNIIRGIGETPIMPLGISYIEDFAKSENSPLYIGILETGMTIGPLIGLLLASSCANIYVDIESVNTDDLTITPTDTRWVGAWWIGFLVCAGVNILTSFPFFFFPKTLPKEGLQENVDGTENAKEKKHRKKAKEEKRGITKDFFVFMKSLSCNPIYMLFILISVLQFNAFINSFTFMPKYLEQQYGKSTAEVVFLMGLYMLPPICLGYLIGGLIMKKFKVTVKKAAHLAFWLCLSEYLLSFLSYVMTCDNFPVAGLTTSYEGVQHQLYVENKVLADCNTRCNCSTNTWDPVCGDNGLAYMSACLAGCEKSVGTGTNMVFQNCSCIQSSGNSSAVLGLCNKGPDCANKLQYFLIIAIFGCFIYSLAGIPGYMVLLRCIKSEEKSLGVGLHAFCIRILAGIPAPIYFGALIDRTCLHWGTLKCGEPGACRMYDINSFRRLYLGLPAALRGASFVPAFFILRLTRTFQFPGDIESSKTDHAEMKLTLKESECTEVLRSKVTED
Experiment: TP_TRANSPORTER: inhibition of Rocuronium uptake in Xenopus laevis oocytes
Format: functional, cell-based
Conditions: oocyte

| Activity | SMILES |
| --- | --- |
| is not an inhibitor [-] | CC[N+](C)(CC)CCNC(=O)c1ccc(N=[N+]=[N-])cc1.[I-] [AZIDOPROCAINAMIDE METHOIODIDE] |
| is not an inhibitor [-] | CCCC[N+](C)(CCCC)CCCC [TRIBUTYLMETHYLAMMONIUM] |

Reference: ChEMBL document CHEMBL2074543, “Interactions of cationic drugs and cardiac glycosides at the hepatic uptake level: studies in the rat in vivo, isolated perfused rat liver, isolated rat hepatocytes and oocytes expressing oatp2” (Arch Pharm Res, 2002)
